Series [1] has as its target Pgp ATPase (Cricetulus griseus, UniProt P21448). As to the kind of experiment: Pgp ATPase activity. The series is classed as biochemical. To be noted: over the range 0.3-0.5 M.
Series [2] deals with P-glycoprotein (Pgp) (Cricetulus griseus, UniProt P21448). As to the kind of experiment: in vitro. To be noted: Chinese hamster, Kd2. Here is the method:
(§1) Purification of Pgp. Pgp was purified from plasma membrane of MDR CH^RB30 cells by a modification of the method previously described for CH^RC5 (27). […] Contaminating glycoproteins were removed from the S2 fraction by passing through a concanavalinA-Sepharose 4B column (Pharmacia) equilibrated with 2 mM CHAPS buffer. […] The Pgp preparation was kept on ice and used within 24 h.
(§2) Steady-state Fluorescence Measurements. Steady-state fluorescence measurements were performed using a Spex Model DM3000 spectrofluorimeter (Spex Industries Inc., Edison, N.J.) at 22° C., with excitation and emission bandpass set to 4 nm. Most fluorescence studies were carried out on solutions of 100 μg/mL Pgp in 2 mM CHAPS buffer, in the presence of 0.5 mg/mL of the phospholipid PMPC (Avanti Polar Lipids, Alabaster, Ala.). PMPC was added as extruded 100 nm unilamellar vesicles (8). With some drugs, the use of a lipid was not required for the fluorescence measurements. The excitation and emission spectra were the average of three scans, and were corrected by subtracting control scans with the same phospholipid buffer in the absence of protein.
(§3) Quenching Studies using TNP-Nucleotide Derivatives and Drugs. […] Working solutions of TNP-derivatives, and non-peptide drugs and modulators were also prepared in 2 mM CHAPS with 0.5 mg/mL PMPC vesicles, whereas peptide-based drugs and modulators were dissolved in dimethylsulfoxide (DMSO). […] Quenching experiments were performed by successively adding 5 μL aliquots of TNP-derivatives or drug solution to 500 μL of Pgp solution in a 0.5 cm quartz cuvette. After each addition, the sample was excited at 290 nm and the steady-state fluorescence emission was measured at 330 nm. Fluorescence intensities were corrected for dilution, scattering, and the inner filter effect as described elsewhere (8). Control titrations were performed with 30 μM NATA to assess the non-specific quenching of Trp fluorescence by TNP-nucleotide derivatives and drugs.
(§4) The experimental quenching data were computer-fitted to the following equation as described previously (8)(9): [formula]
(§5) where (ΔF/F0 100) is the percent quenching (percent change in fluorescence relative to the initial value), following addition of substrate at a concentration [S], and Kd is the dissociation constant. Fitting was carried out using nonlinear regression with the Marquardt-Levenberg algorithm (SigmaPlot, SPSS Inc., Chicago, Ill.), and values of Kd and (ΔFmax/F0 100) were extracted. For biphasic titration curves, each section of the binding curve was fitted to the above equation separately, as described previously (32).

In series [3] the target is T1, P-glycoprotein (Pgp) purified from MDR CH^RB30 Chinese hamster ovary cells (Cricetulus griseus, UniProt P21448). As to the kind of experiment: Quenching of intrinsic Trp fluorescence of purified Pgp by nucleotides, drugs and peptides. To be noted: maximal Trp quenching. Here is the method: as §1, §2, §3, §4, §5
T1 sequence (P21448 whole entry): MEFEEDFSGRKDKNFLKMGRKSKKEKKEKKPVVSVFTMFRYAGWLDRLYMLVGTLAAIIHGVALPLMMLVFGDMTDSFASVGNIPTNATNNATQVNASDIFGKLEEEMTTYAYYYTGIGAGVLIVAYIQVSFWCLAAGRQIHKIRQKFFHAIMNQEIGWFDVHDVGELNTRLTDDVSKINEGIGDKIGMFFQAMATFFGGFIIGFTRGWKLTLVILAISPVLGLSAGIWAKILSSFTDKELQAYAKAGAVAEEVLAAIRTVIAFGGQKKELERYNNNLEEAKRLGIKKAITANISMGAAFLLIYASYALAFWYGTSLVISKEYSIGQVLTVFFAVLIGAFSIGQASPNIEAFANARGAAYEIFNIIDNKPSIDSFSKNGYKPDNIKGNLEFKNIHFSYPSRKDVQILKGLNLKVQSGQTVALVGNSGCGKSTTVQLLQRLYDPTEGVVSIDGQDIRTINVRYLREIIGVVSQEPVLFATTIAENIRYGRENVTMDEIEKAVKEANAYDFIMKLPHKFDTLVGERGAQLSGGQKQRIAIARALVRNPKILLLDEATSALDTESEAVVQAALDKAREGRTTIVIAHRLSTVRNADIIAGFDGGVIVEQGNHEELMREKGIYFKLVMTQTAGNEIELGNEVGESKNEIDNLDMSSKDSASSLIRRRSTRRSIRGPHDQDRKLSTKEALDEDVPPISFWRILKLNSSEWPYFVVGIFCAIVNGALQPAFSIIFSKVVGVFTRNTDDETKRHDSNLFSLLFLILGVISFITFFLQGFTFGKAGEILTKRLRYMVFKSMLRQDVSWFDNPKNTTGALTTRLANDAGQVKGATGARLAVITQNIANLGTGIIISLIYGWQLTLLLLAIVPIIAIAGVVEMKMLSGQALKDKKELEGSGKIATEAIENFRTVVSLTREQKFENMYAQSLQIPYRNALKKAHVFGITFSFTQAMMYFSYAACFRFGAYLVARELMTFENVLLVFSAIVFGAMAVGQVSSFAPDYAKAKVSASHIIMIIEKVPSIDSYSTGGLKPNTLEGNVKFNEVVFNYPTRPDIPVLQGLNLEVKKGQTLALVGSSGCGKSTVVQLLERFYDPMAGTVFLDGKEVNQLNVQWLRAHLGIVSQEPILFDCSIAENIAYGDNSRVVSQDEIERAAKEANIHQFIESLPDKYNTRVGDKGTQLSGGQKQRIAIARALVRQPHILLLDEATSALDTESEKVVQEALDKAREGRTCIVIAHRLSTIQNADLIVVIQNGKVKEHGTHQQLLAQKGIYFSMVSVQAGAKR
The target in series [4] is T1, P-glycoprotein (Pgp) purified from MDR CH^RB30 Chinese hamster ovary cells. As to the kind of experiment: Trp fluorescence lifetime of purified Pgp in presence of nucleotides and drugs. Details: Pgp was purified from plasma membrane of MDR CH^RB30 cells; endogenous in cells; host or cells: MDR CH^RB30 Chinese hamster ovary cells (plasma membrane, CHAPS extraction, concanavalin A-Sepharose pass-through). To be noted: Pgp Trp decay, concentration of substance. Here is the method: as §1
Fluorescence Lifetime Measurements. Fluorescence decays were measured with a PTI Model C-720 fluorescence lifetime instrument ((28), Photon Technology International Inc., Lawrenceville, N.J.) utilizing a proprietary stroboscopic detection technique (29). […] Fluorescence decays were analyzed with a PTI TimeMaster Pro analysis package using a discrete 1- to 4- exponential fit, 1- to 4-exponential global analysis, or lifetime distribution analysis by the Exponential Series Method (ESM) (30). The quality of fits was judged by chi-square values and weighed residuals.

Pgp ATPase, sequence (P21448 whole entry): as above
P-glycoprotein (Pgp), sequence (P21448 whole entry): as above

For the compound `C=CC(N)=O` [acrylamide], the “decline in catalytic activity (ATP hydrolysis by Pgp)” value in series [1] is approximately 20%.
A word on the Kd: it is the equilibrium constant for the complex coming apart. With `CN1CCN(CCCN2c3ccccc3Sc3ccc(C(F)(F)F)cc32)CC1` [trifluoperazine], the Kd in series [2] turned out to be 16.8 ± 1.6 µM. The same compound gave a ΔFmax2 in series [3] (lower affinity component) of 67.7 ± 4.1%. Further, in series [3] (single or higher affinity component), the ΔFmax1 is 18.9 ± 0.87%. In series [4], the “<tav> (amplitude average lifetime)” value is reported as 2.15 ns, the “a1 (pre-exponential value)” value worked out at 0.72, the “a2 (pre-exponential value)” value was 0.35 and the “t1 (fluorescence lifetime)” value amounted to 1.1 ns. In addition, the “t2 (fluorescence lifetime)” value in series [4] is listed as 4.3 ns.

The record behind these values is US20040029100A1, “Rapid screen to identify p-glycoprotein substrates and high affinity modulators” (priority 2000, published 2004).
